In patent publication US20250084087A1, “BICYCLIC HETEROCYCLES AS MRGPRX2 ANTAGONISTS” (Incyte Corporation, priority 2023, published 2025):

Key:
MRGPRX2 [1] = biological target: T1, MRGPRX2 (Homo sapiens, UniProt Q96LB1); assay: MRGPRX2 FLIPR calcium mobilization assay; format: cell-based; design: host or cells: CHO-K1; details: CHO-K1 cells stably expressing human MRGPRX2; Ca2+ release; agonist Cortistatin-14 at EC80
T1 sequence (Q96LB1 1-330): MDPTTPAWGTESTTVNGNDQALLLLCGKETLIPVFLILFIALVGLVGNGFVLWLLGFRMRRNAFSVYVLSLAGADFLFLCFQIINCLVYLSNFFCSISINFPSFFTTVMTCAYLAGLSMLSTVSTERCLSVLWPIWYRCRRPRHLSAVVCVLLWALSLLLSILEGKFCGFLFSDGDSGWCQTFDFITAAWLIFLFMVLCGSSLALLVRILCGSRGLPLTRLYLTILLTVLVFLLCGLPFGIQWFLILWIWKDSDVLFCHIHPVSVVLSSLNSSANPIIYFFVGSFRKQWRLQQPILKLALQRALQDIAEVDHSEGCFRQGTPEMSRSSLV
Method: Example A. MRGPRX2 FLIPR Calcium Mobilization Assay
Chinese hamster ovary (CHO-K1) cells stably expressing human MRGPRX2 were purchased from Genescript (Piscataway, NJ). The cells were maintained in culture medium (Ham's F-12K) containing 10% (v/v) FBS, 200 μg/mL Zeocin, 100 units/mL penicillin G and 100 μg/mL streptomycin (Life Technologies, Carlsbad, CA). For the assay, the cells were harvested and resuspended with culture medium without Zeocin before plating at 8000 cells per well in 20 μL in 384-well black clear bottom cell culture plates (VWR, Radnor, PA). After 24 hour culture at 37° C. and 5% CO2, the cells were loaded with 20 μL/well of calcium dye (FLIPR Calcium 6 Assay Kit, Molecular Devices, San Jose, CA) diluted in loading buffer (1× Hank's Balanced Salt Solution (HBSS), 5 mM probenecid, 20 mM 4-(2-hydroxyethyl)-1-piperazineethanesulfonic acid (HEPES), pH 7.4, VWR, Radnor, PA) followed with 45 min. incubation at 37° C. and 40 min. at r.t. in the dark. Cells were then treated with the addition of 10 uL/well test compounds with a range of increasing concentrations diluted in the assay buffer (1×HBSS, 20 mM HEPES, pH 7.4, VWR, Radnor, PA) with FLIPR Penta (Molecular Devices. San Jose, CA) and incubated for 30 min. at r.t. Ca^2+ release was measured with FLIPR Penta with 10 seconds basal fluorescence measurement, then 12.5 μL of 5× agonist Cortistatin-14 (Tocris, Minneapolis, MN) at final concentration corresponding to the EC80 were added followed with continued fluorescence signal monitoring for an additional 110 seconds. The base line adjusted (median of first 10s base line) max value of the Relative Fluorescence Unit (RFU) was plotted against compound concentrations. Wells with no compound were served as the positive controls, and wells with high concentration of reference antagonist were used as negative controls. IC50 curves were globally fitted with 3- or 4-parameter Hill equation in a Genedata Screener (Genedata Basel, Switzerland).

MRGPRX2 [2] = biological target: T1, MRGPRX2; assay: MRGPRX2 IP1 HTRF assay; format: cell-based; design: host or cells: CHO-K1; details: CHO-K1 cells stably expressing human MRGPRX2; IP1 accumulation; agonist Cortistatin 14 1 μM
In short: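 CHO-K1 cells stably expressing human MRGPRX2, preincubated with compound 1 h at 37 °C, then stimulated with 1 μM Cortistatin 14 for 1 h. IP1 measured by HTRF against standard curve, normalized to DMSO and reference antagonist controls; IC50 from 3- or 4-parameter Hill fit.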

Structure (SMILES) | IC50 (MRGPRX2 [1]) | IC50 (MRGPRX2 [2])
NC(=O)N1CCC(CNc2cc(C(F)(F)F)nc3cc(C(F)(F)F)nn23)(c2ccccc2)CC1 [Example 16, 4-(((2,5-Bis(trifluoromethyl)pyrazolo[1,5-a]pyrimidin-7-yl)amino)methyl)-4-phenylpiperidine-1-carboxamide] | 0.1 to 100 nM | 0.1 to 100 nM
CN1CCC(CNc2cc(C(F)(F)F)nc3cc(C(F)(F)F)nn23)(c2ccccc2)CC1 [Example 17, N-((1-Methyl-4-phenylpiperidin-4-yl)methyl)-2,5-bis(trifluoromethyl)pyrazolo[1,5-a]pyrimidin-7-amine] | 0.1 to 100 nM | 0.1 to 100 nM
NC(=O)N1CCC(CNc2cc(C(F)(F)F)nc3cc(Br)nn23)(c2ccc(F)cn2)CC1 [Example 22, 4-(((2-Bromo-5-(trifluoromethyl)pyrazolo[1,5-a]pyrimidin-7-yl)amino)methyl)-4-(5-fluoropyridin-2-yl)piperidine-1-carboxamide] | 0.1 to 100 nM | 0.1 to 100 nM
OCCN1CCC(CNc2cccc3nc(C(F)(F)F)cn23)(c2ccc(F)cn2)CC1 [Example 23, 2-(4-(5-Fluoropyridin-2-yl)-4-(((2-(trifluoromethyl)imidazo[1,2-a]pyridin-5-yl)amino)methyl)piperidin-1-yl)ethan-1-ol] | 100 to 1000 nM | 100 to 1000 nM
N#CCC(=O)N1CCC(CNc2cccc3nc(C(F)(F)F)cn23)(c2ccc(F)cn2)CC1 [Example 24, 3-(4-(5-Fluoropyridin-2-yl)-4-(((2-(trifluoromethyl)imidazo[1,2-a]pyridin-5-yl)amino)methyl)piperidin-1-yl)-3-oxopropanenitrile] | 0.1 to 100 nM | 100 to 1000 nM
CNC(=O)N1CCC(CNc2cccc3nc(C(C)C)cn23)(c2ccccc2)CC1 [Example 29, 4-(((2-Isopropylimidazo[1,2-a]pyridin-5-yl)amino)methyl)-N-methyl-4-phenylpiperidine-1-carboxamide] | 0.1 to 100 nM | 100 to 1000 nM
NS(=O)(=O)N1CC(CNc2cccc3nc(C(F)(F)F)cn23)(c2ccc(F)cc2)C1 [Example 34, 3-(4-Fluorophenyl)-3-(((2-(trifluoromethyl)imidazo[1,2-a]pyridin-5-yl)amino)methyl)azetidine-1-sulfonamide] | 0.1 to 100 nM | 0.1 to 100 nM
NC(=O)N1CC(CNc2cccc3nc(C(F)(F)F)cn23)(c2ccc(F)cc2)C1 [Example 35, 3-(4-Fluorophenyl)-3-(((2-(trifluoromethyl)imidazo[1,2-a]pyridin-5-yl)amino)methyl)azetidine-1-carboxamide] | 0.1 to 100 nM | 0.1 to 100 nM

Now from value to compound:

IC50 (MRGPRX2 [1]) | IC50 (MRGPRX2 [2]) | Structure (SMILES)
0.1 to 100 nM | 0.1 to 100 nM | O=C(N1CCC(CNc2cccc3nc(C(F)(F)F)cn23)(c2ccccc2)CC1)N1CC(F)(F)C1 [Example 19, (3,3-Difluoroazetidin-1-yl)(4-phenyl-4-(((2-(trifluoromethyl)imidazo[1,2-a]pyridin-5-yl)amino)methyl)piperidin-1-yl)methanone]
0.1 to 100 nM | 0.1 to 100 nM | CNC(=O)N1CCC(CNc2cccc3nc(C(F)(F)C(F)(F)F)cn23)(c2ccccc2)CC1 [Example 26, N-Methyl-4-(((2-(perfluoroethyl)imidazo[1,2-a]pyridin-5-yl)amino)methyl)-4-phenylpiperidine-1-carboxamide]
0.1 to 100 nM | 0.1 to 100 nM | CNC(=O)N1CCC(CNc2cc(Cl)cc3nc(C(F)(F)F)cn23)(c2ccccc2)CC1 [Example 27, 4-(((7-Chloro-2-(trifluoromethyl)imidazo[1,2-a]pyridin-5-yl)amino)methyl)-N-methyl-4-phenylpiperidine-1-carboxamide]
0.1 to 100 nM | 0.1 to 100 nM | CNC(=O)N1CCC(CNc2cc(C)cc3nc(C(F)(F)F)cn23)(c2ccccc2)CC1 [Example 28, N-Methyl-4-(((7-methyl-2-(trifluoromethyl)imidazo[1,2-a]pyridin-5-yl)amino)methyl)-4-phenylpiperidine-1-carboxamide]
